Measured values taken from article PMC7918497, “Proposed Mechanism for the Antitrypanosomal Activity of Quercetin and Myricetin Isolated from Hypericum afrum Lam.: Phytochemistry, In Vitro Testing and Modeling Studies” (Molecules, 2021).
Like-named read-outs stand apart in the source and are kept apart here.

Tests used:
[1] = General cytotoxicity against THP1 cells; type: cell-based, human; conditions: human, THP1 cells
[2] = system: L. donovani axenic amastigotes; assay: In vitro antileishmanial assay, L. donovani axenic amastigotes (Alamar Blue); type: cell-based, Leishmania donovani
Description: (§1) IC50 and IC90 values were computed from the dose–response curves using XLfit software. DFMO (difluoromethylornithine) was used as the positive control. The antiprotozoal activities of the H. afrum fractions and isolated compounds were evaluated in vitro against L. donovani promastigotes, axenic amastigotes and intracellular amastigotes in THP1 cells. The fractions and some isolated compounds were also evaluated against T. brucei trypomastigote forms.

[3] = system: L. donovani promastigotes; assay: In vitro antileishmanial assay, L. donovani promastigotes (Alamar Blue); type: cell-based, Leishmania donovani; conditions: for IC50: read-out: L. Donovani Promastigote IC50; for IC90: read-out: L. Donovani Promastigote IC90
Description: as §1

[4] = system: L. donovani intracellular amastigotes in THP1 cells; assay: In vitro antileishmanial assay, intracellular amastigotes in THP1 cells (parasite rescue and transformation assay); type: cell-based, Leishmania donovani
Description: as §1

TbHK1 = system: TbHK1; parameters: method as in PMID 20971104; conditions: read-out: TbHK1 inhibition IC50; cited from earlier work
[5] = system: Trypanosoma brucei trypomastigotes; assay: In vitro antitrypanosomal assay, T. brucei trypomastigotes (Alamar Blue); type: cell-based
Description: as §1

THP1 cells = assay: General cytotoxicity against THP1 cells; type: cell-based, human; conditions: Table 1
[6] = Leishmania donovani, Table 2, read-out: L. Donovani Amastigote IC50
[7] = Leishmania donovani, Table 2, read-out: L. Donovani Amastigote IC90
[8] = Leishmania donovani, fractions, Table 2
[9] = Leishmania donovani, THP-1, Table 2, read-out: L. Donovani Amastigote/THP IC50
[10] = Leishmania donovani, THP-1, Table 2, read-out: L. Donovani Amastigote/THP IC90
[11] = Trypanosoma brucei, isolated compounds
[12] = Leishmania donovani, Table 1, read-out: L. Donovani Amastigote IC50
[13] = Leishmania donovani, Table 1, read-out: L. Donovani Amastigote IC90
[14] = Leishmania donovani, isolated compounds, Table 1, tested range 0.4–10 ug/mL
[15] = Leishmania donovani, THP-1, Table 1, read-out: L. Donovani Amastigote/THP1 IC50
[16] = Leishmania donovani, THP-1, Table 1, read-out: L. Donovani Amastigote/THP1 IC90
[17] = isolated compounds, Table 1, tested range 0.4–10 ug/mL

IC50 [5, 11] [µM]	IC90 [5, 11] [µM]	IC90 [2, 13] [µM]	IC50 [4, 15] [µM]	IC90 [4, 16] [µM]	Compound	IC50 ([1]; Table 1) [µM]	IC90 ([1]; Table 1) [µM]	IC50 [2, 12] [µM]	IC50 [3, 14] [µM]	IC90 [3, 14] [µM]	further results
					C[C@@H]1[C@H](O)[C@@H](C)/C=C/C=C/C=C/C=C/C=C/C=C/C=C/[C@H](O[C@@H]2O[C@H](C)[C@@H](O)[C@H](N)[C@@H]2O)C[C@@H]2O[C@](O)(C[C@@H](O)C[C@@H](O)[C@H](O)CC[C@@H](O)C[C@@H](O)CC(=O)O[C@H]1C)C[C@H](O)[C@H]2C(=O)O [AMB, Amphotericin, reference compound]	> 2	> 2				IC50 ([1]; Table 2): > 2 µg/mL; IC90 ([1]; Table 2): > 2 µg/mL; IC50 [2, 6]: 0.304 µg/mL; IC90 [2, 7]: 0.362 µg/mL; IC50 [3, 8]: 0.138 µg/mL; IC90 [3, 8]: 0.188 µg/mL; IC50 [4, 9]: 0.187 µg/mL; IC90 [4, 10]: 0.264 µg/mL
> 10	> 10	> 10	> 10	> 10	O=c1c(-c2c(O)cc(O)c3c(=O)cc(-c4ccc(O)cc4)oc23)c(-c2ccc(O)cc2)oc2cc(O)cc(O)c12 [Compound 3, biapigenin]	> 10	> 10	> 10	> 10	> 10	
> 10	> 10	> 10	> 10	> 10	O=c1c(OC2OC(CO)C(O)C(O)C2O)c(-c2cc(O)c(O)c(O)c2)oc2cc(O)cc(O)c12 [Compound 6, myricetin-3-O-β-D-galactopyranoside]	> 10	> 10	> 10	> 10	> 10	
> 10	> 10	> 10	> 10	> 10	O=c1c(O)c(-c2cc(O)c(O)c(OC3OC(CO)C(O)C(O)C3O)c2)oc2cc(O)cc(O)c12 [Compound 7, myricetin-3’-O-β-D-glucopyranoside]	> 10	> 10	> 10	> 10	> 10	
					NCCC[C@](N)(C(=O)O)C(F)F [DFMO, α-difluoromethylornithine, reference compound]						T. Brucei IC50 ([5]; fractions): 3.634 µg/mL; T. Brucei IC90 ([5]; fractions): 8.804 µg/mL; IC50 ([5]; isolated compounds): 3.63 µM; IC90 ([5]; isolated compounds): 8.8 µM
0.001	0.002	> 10			N=C(N)c1ccc(OCCCCCOc2ccc(C(=N)N)cc2)cc1 [PENT, Pentamidine, reference compound]	> 10	> 10				IC50 ([1]; Table 2): > 10 µg/mL; IC90 ([1]; Table 2): > 10 µg/mL; IC50 ([5]; Trypanosoma brucei, fractions): 0.001 µg/mL; IC90 ([5]; Trypanosoma brucei, fractions): 0.002 µg/mL; IC50 [2, 6]: 9.58 µg/mL; IC90 [2, 7]: > 10 µg/mL; IC50 [3, 8]: 1.48 µg/mL; IC90 [3, 8]: 2.38 µg/mL; IC50 [4, 9]: 1.16 µg/mL; IC90 [4, 10]: 5.59 µg/mL
					myricitrin [Compound 2]						IC50 (THP1 cells): > 10 µM; IC90 (THP1 cells): > 10 µM; IC50 ([5]; isolated compounds): > 10 µM; IC90 ([5]; isolated compounds): > 10 µM; IC50 ([2]; Table 1, read-out: L. Donovani Amastigote IC50): > 10 µM; IC90 ([2]; Table 1, read-out: L. Donovani Amastigote IC90): > 10 µM; IC50 [3, 17]: > 10 µM; IC90 [3, 17]: > 10 µM; IC50 ([4]; Table 1, read-out: L. Donovani Amastigote/THP1 IC50): > 10 µM; IC90 ([4]; Table 1, read-out: L. Donovani Amastigote/THP1 IC90): > 10 µM

Compound	IC50 [5, 11] [µM]	IC90 [5, 11] [µM]	IC90 [2, 13] [µM]	IC50 [4, 15] [µM]	IC90 [4, 16] [µM]	IC50 ([1]; Table 1) [µM]	IC90 ([1]; Table 1) [µM]	IC50 [2, 12] [µM]	IC50 [3, 14] [µM]	IC90 [3, 14] [µM]	further results
O=c1c(O)c(-c2ccc(O)c(O)c2)oc2cc(O)cc(O)c12 [Compound 1, quercetin]	7.52	9.76	> 10	> 10	> 10	> 10	> 10	> 10	> 10	> 10	IC50 (TbHK1): 4.1 µM
O=c1c(O)c(-c2cc(O)c(O)c(O)c2)oc2cc(O)cc(O)c12 [Compound 4, myricetin]	5.71	7.97	> 10	> 10	> 10	> 10	> 10	> 10	> 10	> 10	IC50 (TbHK1): 48.9 µM
O=c1c(O[C@@H]2O[C@H](CO)[C@H](O)[C@H](O)[C@H]2O)c(-c2ccc(O)c(O)c2)oc2cc(O)cc(O)c12 [Compound 5, hyperoside]	> 10	> 10	> 10	> 10	> 10	> 10	> 10	> 10	> 10	> 10	
